According to US20230321237A1, “REGULATORY T CELL EPITOPES” (EPIVAX, INC., priority 2020, published 2023):

Legend:
[1] = system: Class II HLA alleles HLA-DRB1*0101, *0301, *0401, *0701, *0801, *0901, *1101, *1301, *1501; assay: HLA Binding Assay with soluble HLA molecules (competition with labeled control peptide); parameters: species or system human; conditions: FIG. 18
Method: HLA Binding Assay. Binding activity was analyzed at EpiVax (Providence, Rhode Island). The binding assay used (Steere A C et al., (2006), J Exp Med, […]:961-73) yielded an indirect measure of peptide-MHC affinity. Soluble HLA molecules were loaded onto a 96-well plate with the unlabeled experimental Tregitopes and labeled control peptide. Once the binding mixture reached steady equilibrium (at 24 hours), the HLA-Tregitope complexes were captured on an ELISA plate coated with anti-human DR antibody and detected with a Europium-linked probe for the label (PerkinElmer, Waltham, MA). Time-resolved fluorescence measuring bound labeled control peptide is assessed by a SpectraMax® M5 unit (Spectramax, Radnor, PA). Binding of experimental Tregitopes was expressed as the percent inhibition of the labeled control peptide ([…]). The percent inhibition values for each experimental Tregitope (across a range of molar concentrations) were used to calculate the concentration at which it inhibits 50% of the labeled control […] specific binding, i.e. the Tregitope's IC50.
Selected experimental Tregitopes were solvated in DMSO. The diluted Tregitopes were then mixed with binding reagents in aqueous buffering solution, yielding a range of final concentrations from 100,000 nM down to 100 nM. […]

[2] = system: CD4 T cells in donor PBMC stimulated with Tetanus Toxoid; format: cell-based, human
[3] = system: CD4+ effector memory T cells in PBMC; format: cell-based, human
[4] = system: soluble HLA class II molecules (human DR molecules); conditions: cited from earlier work
[5] = system: PBMCs from lupus patients; conditions: cited from earlier work
[6] = CRIM-negative infantile Pompe disease patients; cited from earlier work
[7] = target: T1, Recombinant human cathepsin B (Homo sapiens, UniProt P07858); assay: Cathepsin B cleavage of the Val-Cit site; format: biochemical; conditions: 0.01 ug rhCathepsin B, 10 uM peptide substrate, RT 15 min, mass spec
T1 construct: purchased R&D Systems 953-CY
Method: Recombinant human cathepsin B (catalog 953-CY of R&D Systems™) can be used to evaluate the cleavage of the Val-Cit site engineered into the Tregitope peptide. The activity assay protocol can be used according to the R&D Systems™'s recommendations with final assay conditions of 0.01 ug rhCathepsin B and 10 uM of peptide substrate. After incubation of Cathepsin B with purified peptides (at RT for 15 min). The peptide can be evaluated by mass spec using the Qstar XL Pro™.

## KDILTLRLDVMMETE (listed as Homo sapiens) [SEQ ID NO: 4]
[1]
  initial HLA binding results compared with prediction: high false negative
[2]
  effect on CD4 proliferation: little effect

## ILTIHFTGHSFIYGK (listed as Homo sapiens) [SEQ ID NO: 74, known Tregitope used as positive control in the TTBSA, reference compound]
[2]
  inhibition of CD4 T cell proliferation (CFSE low): successfully inhibit
  proliferation of regulatory T cells: increased proliferation

## Tetanus Toxoid: proliferation stimulant (Astarte Biologics) in the TTBSA [reference compound]
[3]
  activated (CD25 high) CD4 T cells also proliferating (CFSE low): approximately 90%
[2]
  CD4 proliferation caused by the stimulant: caused CD4 proliferation

## AAALVSLATAALLGHI [SEQ ID NO: 3]
[2]
  effect on CD4 proliferation: little effect

## RIHMVYSKRSGKPRGYAFIEY [peptide 131-151]
[4]
  binding to human DR molecules: binds to a large panel of human DR molecules
[5]
  randomly selected lupus patients whose PBMCs contain T cells that proliferate in response to the peptide: 40%

## SHRLLAVCALVSLATAA (listed as Homo sapiens) [SEQ ID NO: 1]
[3]
  suppression of activated effector CD4+ T cells (CD4+/CD25hi/FoxP3int) reacting to Tetanus Toxoid: Suppressed
[2]
  ratio of T regulatory cells to T effector cells: best ratios

## PRELSGSSPVLEETH (listed as Homo sapiens) [SEQ ID NO: 7]
[2]
  Tregitope suppressive activity: demonstrated Tregitope suppressive activity
  effect on CD4 proliferation: little effect
  inhibition of CD4 T cell proliferation (CFSE low): little effect

## AHGVFLLNSNAMDVVLQ (listed as Homo sapiens) [SEQ ID NO: 5]
[2]
  ratio of T regulatory cells to T effector cells: good ratios

## rhGAA: recombinant human acid alpha-glucosidase for enzyme replacement therapy
[6]
  antibody titers reactive to administered rhGAA: high antibody titers

## PEG12
[7]
  cleavage of the Val-Cit site by Cathepsin B: successful cleavage
